Laboratory results published in patent publication US11793782B2, “Therapeutic agents for neurodegenerative diseases” (priority 2017, dated 2023).
“And” between values parts separate entries of the source, which are not always exact repeats. Equal entries are not always repeated.

Assays:
Npc1−/− and Npc1+/+ mice = assay: Gait analysis (CatWalk), NPC mouse study; assay type: in vivo; conditions: 0.1 g/kg from weaning, eight weeks of age
Experimental: Separate groups of Npc1^−/− and Npc1^+/+ mice were left untreated, as controls. Gait analysis was performed on mice at eight weeks of age using a CatWalk®15.0 system according to manufacturer's instructions (Noldus, Nottingham, UK). Five runs were recorded per animal. CatWalk® parameters measured were: • 1. Stand Mean: average duration (s) of paws in contact with glass plate; • 2. Step Cycle: duration (s) between two consecutive contacts of the same paw; • 3. Duty Cycle: percentage of time paws in contact with plate compared with time to complete a step cycle; • 4. Step Sequence (AB): percentage of time spent walking in LF-RH-RF-LH alternating pattern (LF: left front; RH: right hind; RF: right front; LH left hind); • 5. Cadence: step per seconds in a trial; • 6. Diagonal Support: percentage of time with simultaneous contact of diagonal paws with the glass plate (RF&LH or RH&LF). Motor Function Analysis

NPC patients = assay: Clinical severity score (CSS) and annual severity increment score (ASIS) in NPC patients; assay type: in vivo, human; set-up: key to CSS overall / CSS eye movement / CSS ambulation / CSS speech / CSS swallow / CSS fine motor skills / CSS cognition / CSS memory / CSS seizures: NPC clinical severity score; higher score = greater severity; conditions: for CSS overall / CSS ambulation / CSS cognition / CSS eye movement / CSS fine motor skills / CSS memory / CSS seizures / CSS speech / CSS swallow / ASIS overall: NPC patients; for ASIS overall: CSS divided by age
Excerpt: Progression of a neurodegenerative disease over time or through treatment can be monitored, for example, using one or more known tests at two or more time points and comparing the results. Disease progression and/or severity can be assessed, for example, using the Scale for the Assessment and Rating of Ataxia (SARA), Spinocerebellar Ataxia Functional Index (SCAFI), the International Cooperative Ataxia Rating Scale (ICARS), the brief ataxia rating scale (BARS), the modified Disability Rating Scale (mDRS), EuroQol 5Q-5D-5L (EQ-5D-5L), the visual analogue scale (VAS), neuropsychological tests, such as Wechsler Adult Intelligence Scale-Revised (WAIS-R), Wechsler Intelligence Scale for Children-IV (WISC-IV), Montreal Cognitive Assessment (MoCA), as well as scales used in movement disorders, such as the Unified Parkinson's Rating Scale (UPRS) or the Unified Multiple System Atrophy Rating Scale (UMSARS), or other suitable tests. For certain LSDs, such as NPC, particular scores have been developed and validated over the last decades, for instance the clinical severity score (CSS) and annual severity increment score (ASIS) (see Yanjanin et al., “Linear Clinical Progression, Independent of Age of Onset, in Niemann-Pick Disease, Type C,” Am J Med Genet Part B 153B:132-140) and the modified 6-Domain NP-C disability Scale (mDRS score). For example, an NPC patient's severity can be quantified by assigning a CSS, which assesses various parameters of the disease (ambulation, seizures, eye movement, etc.) and gives each parameter a score out of 5. A higher score equals a greater severity. The ASIS quantifies the annual rate of change in the CSS, calculated by dividing the CSS by the patient's age. In this regard, certain scores in these tests are characteristic of symptomatic neurodegenerative disease patients and evidence disease progression and/or severity.
An NPC patient's severity may be quantified by assigning a clinical severity score (CSS), which assesses various parameters of the disease and gives each parameter a score out of 5 (higher score=greater severity). See Yanjanin et al., “Linear Clinical Progression, Independent of Age of Onset, in Niemann-Pick Disease, Type C,” Am J Med Genet Part B 153B:132-140. In an untreated patient, one can typically predict how the CSS will change over time in an individual, as disease progression appears to be linear. For example, if Patient A moves from a CSS of 8 to a CSS of 12 between month 0 and month 12, it can be predicted that by month 36, the patient will have a CSS of 20. The annual severity increment score (ASIS) quantities the annual rate of change in the CSS, calculated by dividing the CSS of a patient by the patient's age. […] Each year, the patient would be expected to progress by 4 CSS points, such that at 4 years of age, the patient's CSS would be 16. If therapeutic intervention slowed or arrested disease progression, one would expect the patient to have a smaller ASIS score after such therapy than at baseline.
Ten NPC patients were administered acetyl-leucine at 4.5 g/day over long durations. ACSS was determined at baseline, and at various time points, for eye movement, ambulation, speech, swallow, fine motor skills, cognition, memory, and seizures. An overall CSS was calculated at baseline and at each such time point by adding the individual CSS values for each parameter (eye movement, ambulation, etc.).
The ASIS at baseline and each time point was calculated using each patient's CSS and age at the time of assessment. The overall ASIS for each patient at each time point is shown below in Table 35.

[1] = test system: corticobasal syndrome patient; assay: Case study, corticobasal syndrome; assay type: in vivo, human
Experimental: Gait analysis was performed before treatment commenced.

[2] = one line per Patient, 4.5 g/day, Time Point 2, listed as acetyl-leucine
[3] = one line per Patient, 4.5 g/day, Time Point 3, listed as acetyl-leucine
[4] = one line per Patient, 4.5 g/day, Time Point 4, listed as acetyl-leucine

CC(=O)NC(CC(C)C)C(=O)O (racemic) [acetyl-DL-leucine]
Gait vs untreated littermates (Npc1−/− and Npc1+/+ mice): significantly improved gait
CSS overall (NPC patients; one line per Patient I.D 1-10, 4.5 g/day, Time Point 2 (78-400 days, Table 25), listed as acetyl-leucine): 13 and 12 (3×) and 23 and 19 and 22 and 11 (2×) and 33
CSS ambulation (NPC patients; [2]): 2 (5×) and 1 (3×) and 4 and 5
CSS cognition (NPC patients; [2]): 3 (5×) and 4 (3×) and 2 and 5
CSS eye movement (NPC patients; [2]): 2 and 3 (9×)
CSS fine motor skills (NPC patients; [2]): 1 (6×) and 4 (2×) and 2 and 5
CSS memory (NPC patients; [2]): 1 (5×) and 3 and 4 (3×) and 0
CSS seizures (NPC patients; [2]): 0 (9×) and 5
CSS speech (NPC patients; [2]): 2 (4×) and 1 (6×)
CSS swallow (NPC patients; [2]): 2 (5×) and 3 (3×) and 0 and 4
CSS overall (NPC patients; one line per Patient, 4.5 g/day, Time Point 3 (165-644 days), listed as acetyl-leucine): 10 (2×) and 12 and 21 (2×) and 19 and 11 (2×) and 33
CSS ambulation (NPC patients; [3]): 1 (5×) and 2 (3×) and 5
CSS cognition (NPC patients; [3]): 3 (5×) and 4 (3×) and 5
CSS eye movement (NPC patients; [3]): 2 (2×) and 3 (7×)
CSS fine motor skills (NPC patients; [3]): 1 (5×) and 4 (2×) and 2 and 5
CSS memory (NPC patients; [3]): 0 (2×) and 1 (3×) and 3 (2×) and 4 (2×)
CSS seizures (NPC patients; [3]): 0 (8×) and 5
CSS speech (NPC patients; [3]): 1 (6×) and 2 (3×)
CSS swallow (NPC patients; [3]): 2 (4×) and 3 (3×) and 0 and 4
CSS eye movement (NPC patients; one line per Patient, 4.5 g/day, Time Point 4): 3
CSS overall (NPC patients; one line per Patient, 4.5 g/day, Time Point 4 (297-414 days), listed as acetyl-leucine): 12 and 21 and 33
CSS ambulation (NPC patients; [4]): 1 and 2 and 5
CSS cognition (NPC patients; [4]): 3 and 4 and 5
CSS fine motor skills (NPC patients; [4]): 1 and 4 and 5
CSS memory (NPC patients; [4]): 1 and 3 and 4
CSS seizures (NPC patients; [4]): 0 (2×) and 5
CSS speech (NPC patients; [4]): 1 and 2 (2×)
CSS swallow (NPC patients; [4]): 2 and 3 and 4
ASIS overall (NPC patients; one line per patient (order of Table 26), Time Point 2, listed as acetyl-leucine): 0.4767 and 0.4299 and 0.6073 and 0.5333 and 0.4452 and 0.7124 and 0.406 and 0.3769 and 1.905 and 0.5926
ASIS overall (NPC patients; one line per patient, Time Point 3, listed as acetyl-leucine): 0.3635 and 0.4232 and 0.5523 and 0.5299 and 0.4029 and 0.6656 and 0.3393 and 1.881 and 0.5325
ASIS overall (NPC patients; one line per patient, Time Point 4, listed as acetyl-leucine): 0.4162 and 0.5454 and 1.853
ASIS during treatment relative to ASIS at baseline (NPC patients; ten NPC patients, 4.5 g/day): all ten patients showed a reduction in ASIS
Overall change in CSS over the course of the experiment (NPC patients; ten NPC patients, 4.5 g/day): none of the ten patients showed an overall increase in CSS
Clinical observation ([1]; 5 g per day, after 20 days): improvement of dizziness symptoms and significant reduction in the frequency of falls
Coefficient of variation (temporal) ([1]; after 20 days of treatment, before 3.9): 3.4
Track width ([1]; after 20 days of treatment, before 12.1): 12.3 cm
Functional Gait Assessment ([1]; after 20 days of treatment, before 13/30): 18/30
Double stance ([1]; after 20 days of treatment, before 29.8): 26.6%
speed ([1]; after 20 days of treatment, before 63): 92 cm/s
Step cycle length ([1]; after 20 days of treatment, before 84): 104 cm
cadence ([1]; after 20 days of treatment, before 90): 106 steps/minute
Max. speed ([1]; after 20 days of treatment, before 131): 152 cm/s
Symptoms after suspension of treatment ([1]; two days after suspension, after 8 weeks of treatment): increase of dizziness symptoms
